# Laboratory results published in patent US10758534B2 (Vertex Pharmaceuticals Incorporated, priority 2014, dated 2020).
# Biological target: T1, F508del (Homo sapiens, UniProt P13569, DEL508-508)
# T1 construct: expressed in transfected cells
# Assay: Protocol 2: FRET membrane potential optical assay (VIPR), identification of correction compounds
# Format: cell-based
# Conditions: F508del CFTR modulator activity; compounds of Table 1
# How it was run: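 Mouse NIH3T3 cells, stable F508del; cpd 16 hrs, 37° C., serum-free; pos ctrl 27° C. 16 hrs. Rinse in Krebs Ringers, dye load, then add 10 μM forskolin + 20 μM genistein with Cl^−-free (gluconate) medium; depolarization by FRET voltage dyes.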
# T1 sequence (P13569 with tags, fused parts or gaps DEL508-508): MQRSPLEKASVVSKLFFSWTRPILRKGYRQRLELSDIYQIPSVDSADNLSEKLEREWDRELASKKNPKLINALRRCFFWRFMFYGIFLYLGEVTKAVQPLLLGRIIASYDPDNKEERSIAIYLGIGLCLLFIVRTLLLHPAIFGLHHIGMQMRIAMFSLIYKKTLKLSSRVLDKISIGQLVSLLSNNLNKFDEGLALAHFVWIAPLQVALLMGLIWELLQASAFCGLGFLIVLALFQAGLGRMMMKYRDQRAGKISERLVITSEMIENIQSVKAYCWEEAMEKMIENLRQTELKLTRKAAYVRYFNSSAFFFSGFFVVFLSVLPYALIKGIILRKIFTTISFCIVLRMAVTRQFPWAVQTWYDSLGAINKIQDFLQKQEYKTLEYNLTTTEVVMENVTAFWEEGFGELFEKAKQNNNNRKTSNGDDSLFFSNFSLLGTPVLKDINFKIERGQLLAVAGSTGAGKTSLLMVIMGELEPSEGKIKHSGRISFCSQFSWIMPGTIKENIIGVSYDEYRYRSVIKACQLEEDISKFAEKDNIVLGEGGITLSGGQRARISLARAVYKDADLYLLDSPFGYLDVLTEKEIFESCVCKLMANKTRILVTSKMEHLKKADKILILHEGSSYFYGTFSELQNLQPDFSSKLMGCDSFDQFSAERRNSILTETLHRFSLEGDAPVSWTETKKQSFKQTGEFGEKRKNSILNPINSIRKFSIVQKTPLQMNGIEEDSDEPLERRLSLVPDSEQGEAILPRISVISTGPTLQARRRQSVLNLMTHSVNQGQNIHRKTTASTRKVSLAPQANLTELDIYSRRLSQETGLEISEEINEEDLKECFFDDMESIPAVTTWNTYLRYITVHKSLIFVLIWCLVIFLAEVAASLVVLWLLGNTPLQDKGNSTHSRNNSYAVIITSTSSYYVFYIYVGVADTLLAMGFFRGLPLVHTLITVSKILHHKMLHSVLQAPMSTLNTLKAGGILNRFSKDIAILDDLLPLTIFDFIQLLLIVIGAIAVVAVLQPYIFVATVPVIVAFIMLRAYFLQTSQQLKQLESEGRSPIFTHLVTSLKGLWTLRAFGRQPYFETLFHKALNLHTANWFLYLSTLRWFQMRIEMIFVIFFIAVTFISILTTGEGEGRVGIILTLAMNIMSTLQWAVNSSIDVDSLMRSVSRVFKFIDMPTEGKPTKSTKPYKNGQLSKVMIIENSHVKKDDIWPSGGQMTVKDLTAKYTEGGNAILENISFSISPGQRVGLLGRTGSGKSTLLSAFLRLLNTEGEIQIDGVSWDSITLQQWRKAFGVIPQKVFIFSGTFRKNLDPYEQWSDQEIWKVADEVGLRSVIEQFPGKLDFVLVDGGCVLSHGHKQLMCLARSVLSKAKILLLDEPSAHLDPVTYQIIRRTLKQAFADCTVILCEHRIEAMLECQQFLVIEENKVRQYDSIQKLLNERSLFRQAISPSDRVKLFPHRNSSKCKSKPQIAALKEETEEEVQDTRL
row,SMILES,EC30
1,"CC(C)COc1cc(F)cc(-c2ccc(C(=O)NS(=O)(=O)c3cccc(N)n3)c(N3CCC(C)C(C)C3)n2)c1 (single isomer, unassigned) [Compound 2178, N-[(6-amino-2-pyridyl)sulfonyl]-2-(3,4-dimethyl-1-piperidyl)-6-(3-fluoro-5-isobutoxy-phenyl)pyridine-3-carboxamide]",+++ (“+++” means <3 uM)

# Same assay, conditions: F508del CFTR modulator activity; compounds of Table 1; read-out: EC30
row,SMILES,EC30 [nM]
1,"CC1CN(c2ncccc2C(=O)NS(=O)(=O)c2cccc(OCC3CC3)n2)C(C)(C)C1 (centres unmarked) [Compound 2342, N—[[6-(cyclopropylmethoxy)-2-pyridyl]sulfonyl]-2-(2,2,4-trimethylpyrrolidin-1-yl)pyridine-3-carboxamide]",< 3000
2,CC(C)COc1cc(F)cc(-c2ccc(C(=O)NS(=O)(=O)c3cccc(N)n3)c(N3CC(C(F)(F)F)CC3(C)C)n2)c1 (centres unmarked) [Compound 2573],< 3000
3,"C[C@@H]1CN(c2nc(-c3ccc4c(c3)OC(F)(F)O4)ccc2C(=O)NS(=O)(=O)c2cccc(N)n2)C(C)(C)C1 [Compound 2104, N-[(6-amino-2-pyridyl)sulfonyl]-6-(2,2-difluoro-1,3-benzodioxol-5-yl)-2-[(4S)-2,2,4-trimethylpyrrolidin-1-yl]pyridine-3-carboxamide]",< 3000
4,"C[C@@H]1CN(c2nc(-c3cccc(F)c3F)ccc2C(=O)NS(=O)(=O)N2CC[C@H](N)C2)C(C)(C)C1 [Compound 2110, N-[(3S)-3-aminopyrrolidin-1-yl]sulfonyl-6-(2,3-difluorophenyl)-2-[(4S)-2,2,4-trimethylpyrrolidin-1-yl]pyridine-3-carboxamide]",> 10000
5,"CC1CN(c2ncc(-c3ccc(C(C)(C)O)cc3)cc2C(=O)NS(=O)(=O)c2cccc(N)n2)C(C)(C)C1 (centres unmarked) [Compound 2547, N-[(6-amino-2-pyridyl)sulfonyl]-5-[4-(1-hydroxy-1-methyl-ethyl)phenyl]-2-(2,2,4-trimethylpyrrolidin-1-yl)pyridine-3-carboxamide]",< 3000
6,"CCOC(=O)N1CCC(Nc2cccc(S(=O)(=O)NC(=O)c3cccnc3N3CC(C)CC3(C)C)n2)CC1 (centres unmarked) [Compound 2253, ethyl 4-[[6-[[2-(2,2,4-trimethylpyrrolidin-1-yl)pyridine-3-carbonyl]sulfamoyl]-2-pyridyl]amino]piperidine-1-carboxylate]",3000 to 10000
7,"CC1CN(c2ncccc2C(=O)NS(=O)(=O)c2cccc(NC3CCN(Cc4ccccc4)C3)n2)C(C)(C)C1 (centres unmarked) [Compound 2407, N—[[6-[(1-benzylpyrrolidin-3-yl)amino]-2-pyridyl]sulfonyl]-2-(2,2,4-trimethylpyrrolidin-1-yl)pyridine-3-carboxamide]",3000 to 10000
8,C[C@@H]1CN(c2nc(C(C)(C)C)c(C(O)C(O)C(C)(C)C)cc2C(=O)NS(=O)(=O)c2cccc(N)n2)C(C)(C)C1 (some centres unmarked) [Compound 2370],< 3000
9,"CCOc1cccc(S(=O)(=O)NC(=O)c2cccnc2N2CC(C)CC2(C)C)n1 (centres unmarked) [Compound 2617, N-[(6-ethoxy-2-pyridyl)sulfonyl]-2-(2,2,4-trimethylpyrrolidin-1-yl)pyridine-3-carboxamide]",3000 to 10000
10,"C[C@@H]1CN(c2nc(-c3ccc(F)cc3F)ccc2C(=O)NS(=O)(=O)c2ccc[nH]c2=O)C(C)(C)C1 [Compound 2159, 6-(2,4-difluorophenyl)-N-[(2-oxo-1H-pyridin-3-yl)sulfonyl]-2-[(4S)-2,2,4-trimethylpyrrolidin-1-yl]pyridine-3-carboxamide]",< 3000
11,C[C@@H]1CN(c2ncccc2C(=O)NS(=O)(=O)N2CC[C@@H](NCc3ccc(OC(C)(C)C)cc3)C2)C(C)(C)C1 [Compound 2693],3000 to 10000
12,"COC[C@@H]1CCCN1c1cccc(S(=O)(=O)NC(=O)c2cccnc2N2CC(C)CC2(C)C)n1 (stereo partly drawn) [Compound 2024, N—[[6-[(2S)-2-(methoxymethyl)pyrrolidin-1-yl]-2-pyridyl]sulfonyl]-2-(2,2,4-trimethylpyrrolidin-1-yl)pyridine-3-carboxamide]",3000 to 10000
13,"COc1ccc(-c2ccc(C(=O)NS(=O)(=O)c3cccnc3N)c(N3C[C@@H](C)CC3(C)C)n2)cc1 [Compound 2667, N-[(2-amino-3-pyridyl)sulfonyl]-6-(4-methoxyphenyl)-2-[(4S)-2,2,4-trimethylpyrrolidin-1-yl]pyridine-3-carboxamide]",< 3000
14,"CCN(CC)c1ccc(Nc2cccc(S(=O)(=O)NC(=O)c3cccnc3N3CC(C)CC3(C)C)n2)cc1 (centres unmarked) [Compound 2531, N—[[6-[4-(diethylamino)anilino]-2-pyridyl]sulfonyl]-2-(2,2,4-trimethylpyrrolidin-1-yl)pyridine-3-carboxamide]",< 3000
15,"CC1CN(c2ncccc2C(=O)NS(=O)(=O)c2cccc(Nc3ccccc3C#N)n2)C(C)(C)C1 (centres unmarked) [Compound 2659, N—[[6-(2-cyanoanilino)-2-pyridyl]sulfonyl]-2-(2,2,4-trimethylpyrrolidin-1-yl)pyridine-3-carboxamide]",3000 to 10000
16,"Nc1cccc(S(=O)(=O)NC(=O)c2cccnc2Oc2ccccc2-c2nc3ccccc3o2)n1 [Compound 2544, N-[(6-amino-2-pyridyl)sulfonyl]-2-[2-(1,3-benzoxazol-2-yl)phenoxy]pyridine-3-carboxamide]",> 10000

# Same assay, conditions: Table 3; compounds of Table 1 as modulators of CFTR activity; protocol not stated
row,SMILES,EC30
1,"CCc1cccc2c1CN(Cc1c(C)cc(C)cc1C)C2C(=O)NS(=O)(=O)c1cccc(N)c1 (centres unmarked) [Compound 30, N-(3-aminophenyl)sulfonyl-4-ethyl-2-[(2,4,6-trimethylphenyl)methyl]isoindoline-1-carboxamide]",+++ (“+++” means <3 uM)
2,"CC(C)Oc1ccc(-c2ccc(C(=O)NS(=O)(=O)c3cccc(N)n3)c(N3CCC(c4ccccc4)C3C)n2)cn1 (centres unmarked) [Compound 625, N-[(6-amino-2-pyridyl)sulfonyl]-6-(6-isopropoxy-3-pyridyl)-2-(2-methyl-3-phenyl-pyrrolidin-1-yl)pyridine-3-carboxamide]",+++ (“+++” means <3 uM)
3,"Cc1ccc(-c2ccc(C(=O)NS(=O)(=O)c3cc[nH]n3)c(Oc3c(C)cc(C)cc3C)n2)cc1 [Compound 300, 6-(p-tolyl)-N-(1H-pyrazol-3-ylsulfonyl)-2-(2,4,6-trimethylphenoxy)pyridine-3-carboxamide]",+++ (“+++” means <3 uM)
4,"Cc1cc(C)c(CN2Cc3c(-c4ccccc4)cccc3C2C(=O)NS(=O)(=O)c2cccc(N)n2)c(C)c1 (centres unmarked) [Compound 554, N-[(6-amino-2-pyridyl)sulfonyl]-4-phenyl-2-[(2,4,6-trimethylphenyl)methyl]isoindoline-1-carboxamide]",+++ (“+++” means <3 uM)
5,"Cc1cc(C)c(Oc2nc(C(C)(C)C)ccc2C(=O)NS(=O)(=O)c2ccnc(N)c2)c(C)c1 [Compound 283, N-[(2-amino-4-pyridyl)sulfonyl]-6-tert-butyl-2-(2,4,6-trimethylphenoxy)pyridine-3-carboxamide]",+++ (“+++” means <3 uM)
6,"CC(C)COc1cc(F)cc(-c2ccc(C(=O)NS(=O)(=O)c3cccc(N)n3)c(N3C[C@@H](C)CC3(C)C)n2)c1 [Compound 368, N-[(6-amino-2-pyridyl)sulfonyl]-6-(3-fluoro-5-isobutoxy-phenyl)-2-[(4S)-2,2,4-trimethylpyrrolidin-1-yl]pyridine-3-carboxamide]",+++ (“+++” means <3 uM)
7,"Cc1cccc(C)c1Cn1nc(-c2ccccc2F)cc1C(=O)NS(=O)(=O)c1ccccc1 [Compound 109, N-(benzenesulfonyl)-2-[(2,6-dimethylphenyl)methyl]-5-(2-fluorophenyl)pyrazole-3-carboxamide]",+++ (“+++” means <3 uM)
8,"Cc1ccc(Oc2nc(-c3cc(F)cc(OCC(C)C)c3)ccc2C(=O)NS(=O)(=O)c2cccc(N)n2)c(C)c1 [Compound 590, N-[(6-amino-2-pyridyl)sulfonyl]-2-(2,4-dimethylphenoxy)-6-(3-fluoro-5-isobutoxy-phenyl)pyridine-3-carboxamide]",+++ (“+++” means <3 uM)
9,"CC(C)COc1cc(F)cc(-c2ccc(C(=O)NS(=O)(=O)c3cccc(N)n3)c(N3C(C)CCC3(C)C)n2)c1 (centres unmarked) [Compound 496, N-[(6-amino-2-pyridyl)sulfonyl]-6-(3-fluoro-5-isobutoxy-phenyl)-2-(2,2,5-trimethylpyrrolidin-1-yl)pyridine-3-carboxamide]",+++ (“+++” means <3 uM)
10,"Cc1cc(C)c(CN2Cc3ccccc3C2C(=O)NS(=O)(=O)c2ccncc2)c(C)c1 (centres unmarked) [Compound 94, N-(4-pyridylsulfonyl)-2-[(2,4,6-trimethylphenyl)methyl]isoindoline-1-carboxamide]",+++ (“+++” means <3 uM)
11,"Cc1cc(C)c(Oc2nc(C3CCOCC3)ccc2C(=O)NS(=O)(=O)c2cccc(N)n2)c(C)c1 [Compound 748, N-[(6-amino-2-pyridyl)sulfonyl]-6-tetrahydropyran-4-yl-2-(2,4,6-trimethylphenoxy)pyridine-3-carboxamide]",++ (“++” means between 3 uM and 10 uM)
12,"CC(C)COc1cccc(-c2ccc(C(=O)NS(=O)(=O)c3cccc(N)n3)c(N3CC(C)CC3(C)C)n2)n1 (centres unmarked) [Compound 397, N-[(6-amino-2-pyridyl)sulfonyl]-6-(6-isobutoxy-2-pyridyl)-2-(2,2,4-trimethylpyrrolidin-1-yl)pyridine-3-carboxamide]",+++ (“+++” means <3 uM)
13,"Cc1cc(C)c(Cn2c(C(=O)NS(=O)(=O)c3ccccc3)cc3ccc(C)cc32)c(C)c1 [Compound 12, N-(benzenesulfonyl)-6-methyl-1-[(2,4,6-trimethylphenyl)methyl]indole-2-carboxamide]",+++ (“+++” means <3 uM)
14,"Cc1cc(C)c(Oc2nc(C(C)(C)C)ccc2C(=O)NS(=O)(=O)c2cccc(=O)[nH]2)c(C)c1 [Compound 305, 6-tert-butyl-N-[(6-oxo-1H-pyridin-2-yl)sulfonyl]-2-(2,4,6-trimethylphenoxy)pyridine-3-carboxamide]",+++ (“+++” means <3 uM)
15,"Cc1ccc(-c2nc(C(C)(C)C)ccc2C(=O)NS(=O)(=O)c2ccccc2)cc1 [Compound 74, N-(benzenesulfonyl)-6-tert-butyl-2-(p-tolyl)pyridine-3-carboxamide]",+++ (“+++” means <3 uM)
